According to patent EP3623009A1, “MODULATION OF TRF1 FOR BRAIN CANCER TREATMENT” (Fundación del Sector Público Estatal Centro Nacional de …, priority 2018, dated 2020):
“Also recorded” adds a separate entry of the source.

Assays:
p-AKT = p-AKT activation (p-AKT/AKT ratio, western blot) in h676 GSCs; assay type: cell-based, human; conditions: 24h at 1 µM
Experimental: In order to check whether the novel compounds act independently of this pathway, the present inventors treated the cells for 24h at 1 µM concentration and checked p-AKT activation.

h543 GSCs [1] = assay: Sphere formation assay in h543 patient-derived GSCs; assay type: cell-based, human; conditions: for sphere formation (dose-response): h543 GSCs, treated 7 days; for diameter of spheres / number of spheres: h543 patient-derived primary GSCs, compared to untreated controls
Experimental: (§1) Spheres were dissociated into single cells and seeded at a density of 50, 100, 200 and 400 cells/well in a 96 well plate. Neurosphere number was assessed after 7 days. Pictures were taken using Nikon Eclipse Ti-U microscope and neurosphere diameter was measured using NIS Elements BR software.

h676 GSCs [2] = assay: Sphere formation assay in h676 patient-derived GSCs; assay type: cell-based, human; conditions: for sphere formation (dose-response): h676 GSCs, treated 7 days; for diameter of spheres / number of spheres: h676 patient-derived primary GSCs, compared to untreated controls
Experimental: as §1

h676 GSCs [3] = assay: Drug combination (synergy) sphere study in h676 GSCs; assay type: cell-based, human; conditions: combinatorial matrix, spheres after 7 days, combination index
Experimental: Using this concentration as a reference point, the present inventors designed a combinatorial matrix using different concentrations of the compounds (e.g. 2x GI50, GI50 and ½ GI50) to study all the possible combinations. Combination index is calculated to establish if the combination is synergistic, additive or antagonistic (Fig. 50A).

U251 cells = assay: Sphere formation assay in U251 cells cultured with NSC media; assay type: cell-based, human; conditions: seven days, compared to DMSO
Experimental: as §1
Finally, the present inventors checked if the three chemical compounds had the ability to reduce stemness in these cells. They cultured U251 cells with NSC media in order to obtain a suspension culture enriched in stem cells. The inventors performed a sphere formation assay with these cells treated with ETP-47228, ETP-47037 and ETP-50946 or DMSO for seven days. […] Of note, all these effects recapitulated what the present inventors observed with Trf1 genetic downregulation (See 2.2).

h676 GSCs [4] = assay: Subcutaneous xenograft of h676 patient-derived GSCs in nude mice; assay type: in vivo
Experimental: (§2) h676 and h543 patient-derived GSCs were dissociated using a 200 µl pipet and resuspended in NeuroCult medium and matrigel in a 1:1 ratio in a concentration of 1000 cell/µl. Nude mice (athymic Nude-Foxn1^nu/nu from Harlan) were injected subcutaneously with 100 µl of the cell preparation. ETP-47037 (or vehicle) was orally administrated at a concentration of 75 mg/kg 5 days per week (see also section 8), starting one week after cell injection. The vehicle consisted in 10% N-methyl-2-pyrrolidone (NMP, Sigma Aldrich) and 90% poly ethylene glycol (PEG, Sigma Aldrich). Mice were weighted and tumors were measured every 2-4 days. Tumor area was determined by the following equation: A = π * (a/2) * (b/2), were a and b are tumor length and width respectively.
(§3) For oral administration, ETP-47037 was dissolved in 10% N-methyl-2-pyrrolidone (NMP, Sigma Aldrich) and 90% polyethylene glycol (PEG, Sigma Aldrich) at a concentration of 75 mg/kg.
Next, the present inventors set to address whether TRF1 chemical inhibition was able to block tumor growth in vivo. […] Thus, the two independent primary GSCs (h676 and h543) were injected subcutaneously into nude mice. One week after GSC injection, mice received oral administration of the vehicle (NMP 10%, PEG 90%) as placebo or the ETP-47037 TRF1 inhibitor 5 days/week, every week until human endpoint, and tumors were continuously followed-up by caliper measurements (Fig. 42A).

h543 GSCs [5] = assay: Subcutaneous xenograft of h543 patient-derived GSCs in nude mice; assay type: in vivo; conditions: oral 75 mg/kg 5 days/week from one week after injection, caliper, vs vehicle
Experimental: as §2, §3
Next, the present inventors set to address whether TRF1 chemical inhibition was able to block tumor growth in vivo. […] Thus, the two independent primary GSCs (h676 and h543) were injected subcutaneously into nude mice. […]

[6] = Tolerability and pathology of xenograft mice after long-term treatment; assay type: in vivo, nude mice
Experimental: as §2, with “respectively. […] Table1. Mice pathologies after long-term treatment with vehicle or ETP-47037” for “respectively.”

[7] = Brain blood barrier crossing (statement)
[8] = tested on: K-Ras^G12V-induced lung tumors; conditions: Trf1 chemical inhibition; García-Beccaria et al. 2015; cited from earlier work
[9] = h676 xenograft, post-mortem, vs placebo

COc1cc(Nc2ncc3c(n2)-c2ccc(Cl)cc2C(c2c(F)cccc2OC)=NC3)ccc1C(=O)O [Alisertib]
dependence on p-AKT (p-AKT): act independently of p-AKT

CC(=O)O[C@@]12CO[C@@H]1C[C@H](O)[C@@]1(C)C(=O)[C@H](O)C3=C(C)[C@@H](OC(=O)[C@H](O)[C@@H](NC(=O)OC(C)(C)C)c4ccccc4)C[C@@](O)([C@@H](OC(=O)c4ccccc4)[C@H]21)C3(C)C [Docetaxel, reference compound]
sphere formation (dose-response) (h543 GSCs [1]): most potent compounds
sphere formation (dose-response) (h676 GSCs [2]): most potent compounds
dependence on p-AKT (p-AKT): act independently of p-AKT
synergic effect with the PI3Ki (ETP-47037) (h676 GSCs [3]): significant synergic effect

CS(=O)(=O)N1CCN(Cc2cc3c(N4CCOCC4)nc(-c4cnc(N)nc4)cn3n2)CC1 [ETP-47037]
diameter of neurospheres (U251 cells): strong reduction
number of neurospheres (U251 cells): strong reduction
diameter of spheres (h543 GSCs [1]): significant drastic reduction
number of spheres (h543 GSCs [1]): significant drastic reduction
diameter of spheres (h676 GSCs [2]): significant drastic reduction
number of spheres (h676 GSCs [2]): significant drastic reduction
proliferation marker Ki67 (h676 GSCs [4]; GSCs derived xenograft tumors, Ki67-positive cells per field, vs vehicle): reduces proliferation
γH2AX DNA damage marker (h676 GSCs [4]; GSCs derived xenograft tumors, γH2AX-positive cells per field, vs vehicle): induces DNA damage
decrease of TRF1 protein levels (h676 GSCs [4]; h676 xenograft tumors, immunofluorescence, vs placebo): 80%
tumor areas (h676 GSCs [4]; h676 xenograft, oral 75 mg/kg 5 days/week from one week after injection, caliper, vs vehicle): drastic reduction
tumor size (h676 GSCs [4]; [9]): striking decrease
tumor weight (h676 GSCs [4]; [9]): striking decrease
histological analysis of the tumors (h676 GSCs [4]; xenograft tumors after treatment): decreased cellularity in the tumors, together with necrotic areas, apoptotic bodies, compacted chromatin and fragmented DNA
tumor areas (h543 GSCs [5]): drastic reduction
Mice pathologies after long-term treatment ([6]; one cell per mouse (Mice 1 to 4)): Mice 1: dermatitis, mild widening of lymphatic vessels in intestine; also recorded: Mice 2: dermatitis; also recorded: Mice 3: dermatitis; also recorded: Mice 4: dermatitis
signs of sickness or morbidity ([6]; treated cohorts compared to the placebo group): did not detect any signs of sickness or morbidity
crossing the brain blood barrier [7]: not crossing the brain blood barrier
growth of already established lung adenocarcinomas [8]: effectively impair the growth
mouse and tissue viability [8]: without affecting mouse and tissue viability

Cc1cnc2c(N3CCOCC3)nc(-c3ccc(NC(=O)Nc4ccc(C(=O)N5CCN(C)CC5)cc4)cc3)cn12 [ETP-47228]
diameter of neurospheres (U251 cells): strong reduction
number of neurospheres (U251 cells): strong reduction
diameter of spheres (h543 GSCs [1]): significant drastic reduction
number of spheres (h543 GSCs [1]): significant drastic reduction
diameter of spheres (h676 GSCs [2]): significant drastic reduction
number of spheres (h676 GSCs [2]): significant drastic reduction
growth of already established lung adenocarcinomas [8]: effectively impair the growth
mouse and tissue viability [8]: without affecting mouse and tissue viability

NC(Cc1ccccc1)c1csc(Nc2ncccn2)n1 (centres unmarked) [ETP-50946]
diameter of neurospheres (U251 cells): strong reduction
number of neurospheres (U251 cells): strong reduction
diameter of spheres (h543 GSCs [1]): significant drastic reduction
number of spheres (h543 GSCs [1]): significant drastic reduction
diameter of spheres (h676 GSCs [2]): significant drastic reduction
number of spheres (h676 GSCs [2]): significant drastic reduction

CN1CC[C@H](c2c(O)cc(O)c3c(=O)cc(-c4ccccc4Cl)oc23)[C@H](O)C1 [Flavopiridol]
dependence on p-AKT (p-AKT): act independently of p-AKT

C[C@@H](Oc1cc(-n2cnc3ccc(CN4CCN(C)CC4)cc32)sc1C(N)=O)c1ccccc1C(F)(F)F [GSK461364]
dependence on p-AKT (p-AKT): p-AKT dependent

Nc1ccn([C@@H]2O[C@H](CO)[C@@H](O)C2(F)F)c(=O)n1 [Gemcitabine, reference compound]
sphere formation (dose-response) (h543 GSCs [1]): most potent compounds
sphere formation (dose-response) (h676 GSCs [2]): most potent compounds
dependence on p-AKT (p-AKT): act independently of p-AKT
synergic effect with the PI3Ki (ETP-47037) (h676 GSCs [3]): significant synergic effect

COc1ccc(-c2ccc3c(N4CCOCC4)nc(N4C[C@@H](C)O[C@@H](C)C4)nc3n2)cc1CO [KU-0063794]
dependence on p-AKT (p-AKT): p-AKT dependent

O=C(Nc1ccc2[nH]nc(-c3ccncc3)c2c1)[C@@H]1CCN(CC(=O)N2CCN(c3ccc(-c4ncccn4)cc3)CC2)C1 [SCH772984]
dependence on p-AKT (p-AKT): act independently of p-AKT
synergic effect with the PI3Ki (ETP-47037) (h676 GSCs [3]): significant synergic effect
